Patent publication US20090312250A1 (POSTECH ACADEMY-INDUSTRY FOUNDATION, priority 2006, published 2009)

Key:
MIN6 cells [1] = test: Insulin secretion assay in MIN6 cells; type: cell-based, mouse; settings: for effect on EGF-induced insulin secretion: pre-treatment, then 15 nM EGF for 1 min, butanols 0.4%, 10 min
Procedure: Cell Culture The mouse insulin-producing cells MIN6m9 provided by Dr. Susumu Seino (Division of Cellular and Molecular Medicine, Kobe University Graduate School of Medicine, Kobe, Japan) were used between passages 19 and 25 and cultured in DMEM containing 25 mM glucose, 10 mM HEPES, 10% (v/v) fetal calf serum, 50 IU/ml penicillin, and 50 μg/ml streptomycin at 37° C. in a humidified CO2-controlled (5%) incubator. MIN6 cells were transfected using LipofectAMINE, as described previously (Kim et al., J Immunol 163:5462-5470, 1999) Transfection efficiency is about 30-40% by using LipofectAMINE.
(§1) Insulin Secretion Assay: Batches of 10-15 isolated islets or 1×10^6 cells/well grown in 12- or 24-well plates were washed twice with KRB supplemented with 0.2% bovine serum albumin (BSA), and then incubated for 60 min at 37° C. in the KRB solution. We used same number of islets in a same set of experiment. At the end of incubation, the solutions were replaced with fresh KRB containing test reagents and incubated for the designated time. The incubation medium was sampled and centrifuged to remove cells, and the supernatant was assayed for insulin with a radioimmunoassay (RIA) kit (Linco, St. Louis, Mo.).
The MIN6 cells were plated onto 24-well plates and grown for 24 h. The cells were washed twice with KRB supplemented with 0.2% BSA, and then incubated for 60 min at 37° C. in the KRB solution.
The incubation medium was sampled and centrifuged to remove cells, and the supernatant was assayed for insulin levels. The data shown are the mean±S.D. from two independent assays by duplicate. *, P<0.05 compared with not treated (NT) cells.
The incubation medium was sampled and centrifuged to remove cells, and the supernatant was assayed for insulin levels. The data shown are the mean±S.D. from two independent assays by duplicate. *, P<0.05 compared with not treated cells.
The incubation medium was sampled and centrifuged to remove cells, and the supernatant was assayed for insulin levels. The data shown are the mean±S.D. from two independent assays by duplicate. * or **, P<0.05 compared with 2.7 or 11 mM glucose-treated cells.
The incubation medium was sampled and centrifuged to remove cells, and the supernatant was assayed for insulin levels.
In FIG. 3B, the MIN6 cells were plated onto 24-well plates and grown for 24 h. The cells were washed twice with KRB supplemented with 0.2% BSA, and then incubated for 60 min at 37° C. in the KRB solution. […] The incubation medium was sampled and centrifuged to remove cells, and the supernatant was assayed for insulin levels.

MIN6 cells [2] = test: [Ca2+]i measurement in MIN6 cells (Fluo-3 AM, confocal microscope); type: cell-based, mouse
Procedure: Changes in intracellular Ca2+ levels were monitored using a Ca2+-sensitive dye under a confocal microscope. Cells were loaded with […] Fluo-3 AM for 40 min at room temperature. After washing with Krebs-Ringer bicarbonate (KRB; 129 mM NaCl, 5 mM NaHCO3, 4.8 mM KCl, 1.2 mM KH2PO4, 1.0 mM CaCl2, 1.2 mM MgSO4, 2.7 mM glucose, and 10 mM HEPES, pH 7.4) buffer, the cells were further incubated for 15 min in the absence of Fluo-3 AM to de-esterify the dye. To exclude the possible effects of dye loading, the present inventors normalized levels with saponin at the end of the experiments. To normalize, the present inventors measured the residual fluorescence (Fo) at the end of the experiment, and subtracted that from the fluorescence under experimental conditions (F). Excitation of Fluo-3 AM was performed at 488-nm by an argon laser, and the emission range was 515-nm. Images were captured on an inverted confocal microscope (Zeiss LSM 510 Meta, Oberkochen, Germany) with a 20× objective lens. The MIN6 cells were plated onto glass dishes or 24-well plates and grown for 24 h. The cells were washed twice with KRB supplemented with 0.2% BSA, and then incubated for 60 min at 37° C. in the KRB solution. In FIG. 2A, at the end of incubation, the solutions were replaced with fresh KRB containing Fluo-3 AM dissolved (1 mg/ml) in DMSO, and incubated for 1 h. […] Images were captured on an inverted confocal microscope with a 20× objective lens. To normalize, the present inventors measured the residual fluorescence (Fo) at the end of the experiment, and subtracted that from the fluorescence under experimental conditions (F). The data shown are the mean±S.E., n=7.

PLD = PLD activity assay in MIN6 cells (PBt formation); type: cell-based, mouse; settings: for effect on EGF-induced PLD activity: 30 min pre-incubation, then 15 nM EGF for 1 min
Procedure: PLD Activity Assay in Cells: Cells grown in 6-well plates were washed twice with KRB, and then labeled with [3H]myristic acid for 4 h at 37° C. in the KRB solution. PLD activity was assayed by measuring the formation of phosphatidylbutanol (PBt) (Kim J H et al., J Immunol 163:5462-5470, 1999). The intensities of PBt spots in the presence of 0.4% 1-butanol were measured, and PLD activity was obtained by subtracting the corresponding intensities of spots obtained in the absence of 1-butanol.
In FIG. 3A, the MIN6 cells were plated onto 6-well plates and grown for 24 h. The cells were washed twice with KRB, and then incubated for 4 h at 37° C. in the KRB solution in the presence of [^3H]myristic acid. […] The data shown are the mean±S.D. from two independent assays by duplicate.
In FIG. 4A, the MIN6 cells were plated onto 6-well plates and grown for 24 h. The cells were washed twice with KRB, and then incubated for 4 h at 37° C. in the KRB solution in the presence of [^3H]myristic acid. […] The intensities of PBt spots after 1 min accumulation in the presence of 1-butanol were measured, and results were obtained by subtracting the corresponding intensities of spots obtained in the absence of 1-butanol. The data shown are the mean±S.D. from two independent assays by duplicate. *, P<0.05 compared with EGF-treated cells.

mouse pancreatic islets = test: Insulin secretion assay in mouse pancreatic islets; type: cell-based; settings: 1 min treatment
Procedure: as §1
To prepare mouse pancreatic islets, pancreatic islets were isolated from 7- to 8-week-old male BALB/c mice (Hyochang Science, Korea), as described previously (Jonas J C, et al., Diabetes 47:1266-1273, 1998). Isolated islets were transferred onto a 12 well plate, with 10-15 islets per well. We used same number of islets in a same set of experiment. The islets were maintained for up to 2 days in RPMI1640 medium containing 5 mM glucose and 10% fetal calf serum, and supplemented with 100 µg/ml streptomycin and 100 U/ml penicillin.
The mouse pancreatic islets were plated onto 12-well plates and grown for 24 h. The islets were washed twice with KRB supplemented with 0.2% BSA, and then incubated for 60 min at 37° C. in the KRB solution. […]

ICR mice = test: Plasma insulin levels in ICR mice after intravenous injection; type: in vivo, mouse; settings: glucose 0.5 g/kg
Procedure: (§2) Measurement of Plasma Glucose and Plasma Insulin Levels: 7- to 8-week-old male ICR mice were purchased from Hyochang Science (Seoul, Korea). C57BLKSJ-db/db mice were purchased from SLC (Japan). […] Concentrations of plasma glucose were measured by the glucose oxidase method with a portable glucose meter (Gluco-Dr, Korea). Plasma was separated by centrifugation and the plasma insulin assay was performed using a RIA kit. Animal care was conducted in accordance with our institution's guidelines.

C57BLKSJ-db/db mice [3] = test: Plasma glucose levels in obese db/db mice after intravenous injection; type: in vivo, mouse; settings: EGF 50 μg/kg intravenous
Procedure: as §2

C57BLKSJ-db/db mice [4] = test: Plasma insulin levels in obese db/db mice after intravenous injection; type: in vivo, mouse; settings: EGF 50 μg/kg intravenous, 10 min after injection
Procedure: as §2
Plasma insulin levels before and 10 min after injection were compared. […] All animals had free access to water. Animal care was conducted in accordance with our institution's guidelines.

RINm5F = test: Insulin release in RINm5F cell line (data not shown); type: cell-based

Epidermal growth factor [EGF]
insulin levels at basal concentration of glucose (MIN6 cells [1]; 2.7 mM glucose, 15 or 30 nM EGF, 5 min): increased insulin levels | glucose-induced insulin release at high glucose levels (MIN6 cells [1]; 11 mM glucose, 15 or 30 nM EGF, 5 min): additively increased glucose-induced insulin release | effective time of EGF treatment for insulin secretion (MIN6 cells [1]; MIN6 cells, 15 nM EGF): 1 to 2 min | kinetics of stimulation of insulin secretion (MIN6 cells [1]; MIN6 cells, 15 nM EGF compared with 11 mM glucose): kinetics more rapid than glucose | effective concentration of EGF for insulin secretion (MIN6 cells [1]; MIN6 cells, 1 min incubation): 1.5 to 15 nM | insulin secretion (MIN6 cells [1]; MIN6 cells, 1 min treatment): significantly increased insulin secretion | extracellular Ca2+ influx (MIN6 cells [2]; MIN6 cells, 15 nM EGF): stimulated extracellular Ca2+ influx | time to PLD activation by EGF stimulation (PLD; 15 nM EGF): ≤ 2 min | insulin secretion (mouse pancreatic islets; 15 nM EGF): rapidly increased insulin secretion | specificity of the insulin secretion effect among growth factors (mouse pancreatic islets; data not shown): specific among various growth factors | plasma insulin levels (ICR mice): increased plasma insulin levels | plasma glucose (C57BLKSJ-db/db mice [3]): reduced plasma glucose | plasma insulin levels (C57BLKSJ-db/db mice [4]): increased plasma insulin levels | insulin release (RINm5F): could stimulate insulin release

CC(C)(C)O [t-butanol, reference compound]
effect on EGF-induced insulin secretion (MIN6 cells [1]; MIN6 cells): but not by t-butanol treatment

CC(=O)OCOC(=O)CN(CC(=O)OCOC(C)=O)c1ccccc1OCCOc1ccccc1N(CC(=O)OCOC(C)=O)CC(=O)OCOC(C)=O [BAPTA/AM, 1,2-Bis(2-aminophenoxy)ethane-N,N,N′,N′-tetraacetic acid tetrakis (acet-oxymethyl ester)]
effect on EGF-induced PLD activity (PLD): inhibited most of the PLD activity

CCCCO [1-butanol, reference compound]
effect on EGF-induced insulin secretion (MIN6 cells [1]; MIN6 cells): inhibited

O=C(O)CN(CCOCCOCCN(CC(=O)O)CC(=O)O)CC(=O)O [EGTA]
effect on EGF-stimulated extracellular Ca2+ influx (MIN6 cells [2]; 30 min pre-incubation, then 15 nM EGF): reduced | effect on EGF-induced PLD activity (PLD): inhibited most of the PLD activity

O=C[C@H](O)[C@@H](O)[C@H](O)[C@H](O)CO [glucose, reference compound]
time required for Ca2+ influx (MIN6 cells [2]; data not shown): 3 to 4 min | plasma insulin levels (ICR mice): increased plasma insulin levels
